Experimental data reported in patent US20050203067A1, “Pesticidal compositions and methods” (priority 2003, published 2005).
Values after ≈ are worked out from the molar mass of the structure shown. Values joined by “and” are separate entries in the source; they are usually repeats but may differ in a detail not shown here. Identical values can stand only once. “Also recorded” adds a separate entry of the source. Like-named read-outs stand apart in the source and are kept apart here. One block for each compound: values may come before it.

Key:
[1] = system: C. elegans (strain N2); test: C. elegans contact assay (NGM-agar, 24-well); type: in vivo
[2] = system: C. elegans; test: Nematicidal activity of ethanolamine-like compounds on NGM plates (L4 P0, F1 phenotype); type: in vivo, Caenorhabditis elegans
[3] = system: Cephalobus sp.; test: Nematicidal activity against other nematodes (F1 phenotype); type: in vivo
[4] = system: A. ellesmerensis; test: as above; type: in vivo, Acrobiloides ellesmerensis
[5] = system: C. elegans; test: C. elegans agar (plate) assay; type: in vivo; conditions: Caenorhabditis elegans, read-out: Plate EC50
[6] = system: Meloidogyne incognita J2 larvae; test: Miniaturized greenhouse assay on cucumber seedlings, root gall rating; type: in vivo; conditions: for Gall 40 (gall rating): 40 ppm; for Gall 200 (gall rating): 200 ppm
[7] = system: cucumber seedling; test: Miniaturized greenhouse assay, phytotoxicity rating; conditions: for Ptox 40 (phytotoxicity rating): 40 ppm; for Ptox 200 (phytotoxicity rating): 200 ppm
[8] = system: C. elegans; test: C. elegans liquid (well) assay; type: in vivo; conditions: Caenorhabditis elegans, read-out: Well EC50
[9] = system: C. elegans PEAMT1 RNAi-generated mutants; type: in vivo; conditions: for rescue of PEAMT1 mutants: 5 mM
[10] = system: C. elegans PEAMT2 RNAi-generated mutants; conditions: in vivo
[11] = system: P. falciparum; conditions: cited from earlier work
[12] = biological target: P. falciparum PEAMT (Plasmodium falciparum, UniProt Q8IDQ9); conditions: cited from earlier work
[13] = L4 P0 on NGM plates, 23° C., visual observation over several days
[14] = Caenorhabditis elegans, average number of adults in 4 replicate wells 96 hours after challenge, 20° C., read-out: EC50
[15] = 10 days after inoculation, rating scale 0-3 (% root mass galled)
[16] = rating scale 0-3 (% plant weight reduction)

P. falciparum PEAMT, sequence (Q8IDQ9 whole entry): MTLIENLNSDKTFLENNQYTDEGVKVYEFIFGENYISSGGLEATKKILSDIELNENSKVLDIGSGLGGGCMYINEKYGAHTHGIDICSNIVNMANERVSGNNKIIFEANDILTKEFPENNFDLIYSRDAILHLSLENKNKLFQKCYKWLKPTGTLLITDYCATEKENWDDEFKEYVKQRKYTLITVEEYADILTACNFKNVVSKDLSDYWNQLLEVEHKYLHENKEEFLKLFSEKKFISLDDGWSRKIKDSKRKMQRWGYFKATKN

Compound: 2-[(4-phenylazo)phenylanilino]ethanesulfonamide [Compound 3770]
- EC50 ([1]; average number of adults in 4 replicate wells 96 hours after challenge, 20° C., read-out: EC50): 20 µM

Compound: NCC(O)c1ccccc1 (stereo not drawn) [2-amino-1-phenylethanol]
- F1 PHENOTYPE ([2]; C. elegans, 25 mM): Wild-type development
- nematicidal activity against C. elegans [2, 13]: no nematicidal effect

Compound: OCCNCc1ccccc1 [Compound 3702, 2-Benzylaminoethanol]
- EC50 [1, 14]: 3400 µM

Compound: CC(C)(C)NCCO [Compound 3703, 2-(tert-Butylamino)ethanol]
- F1 PHENOTYPE ([3]; Cephalobus sp., 10 mM): L1/L2 arrest/lethality
- F1 PHENOTYPE ([2]; C. elegans, 10 mM): L1/L2 arrest/lethality
- nematicidal activity against C. elegans [2, 13]: showed nematicidal activity
- F1 PHENOTYPE ([4]; A. ellesmerensis, 10 mM): L1/L2 arrest/lethality
- EC50 [1, 14]: 4100 µM

Compound: N[C@@H](CO)Cc1ccccc1 [Compound 3704, D-Phenylalaninol]
- F1 PHENOTYPE ([3]; in vivo): L1/L2 arrest/lethality
- F1 PHENOTYPE ([2]; in vivo): L1/L2 arrest/lethality
- nematicidal activity against C. elegans ([2]; in vivo): showed nematicidal activity
- F1 PHENOTYPE ([4]; in vivo): L1/L2 arrest/lethality
- EC50 ([1]; Caenorhabditis elegans, 96 h): 2500 µM

Compound: OCCNc1ccccc1 [Compound 3733, N-(2-Hydroxyethyl)aniline]
- F1 PHENOTYPE ([2]; C. elegans, 10 mM): L1/L2 arrest/lethality
- nematicidal activity against C. elegans [2, 13]: showed nematicidal activity
- EC50 [1, 14]: 4200 µM

Compound: COc1ccc(NCCS(=O)(=O)F)cc1 [Compound 3736, 2-4-methoxy-phenylaminoethanesulfonyl fluoride]
- EC50 ([1]; in vivo, read-out: EC50): 500 µM

Compound: O=S(=O)(F)CCNc1ccc(Cl)cc1 [Compound 3738, 2-4-chlorophenylaminoethanesulfonyl fluoride]
- EC50 ([1]; in vivo, read-out: EC50): 82 µM

Compound: O=C1CCC(=O)N1CCS(=O)(=O)F [Compound 3743, 2,5-Dioxo-1-pyrrolidineethanesulfonyl fluoride]
- EC50 ([1]; in vivo, read-out: EC50): 1300 µM

Compound: O=S(=O)(F)CCn1nnc2ccccc21 [Compound 3745, 2-Benzotriazol-1-yl-ethanesulfonylfluoride]
- EC50 ([1]; in vivo, read-out: EC50): 1700 µM and 1340 µM

Compound: O=S(=O)(F)CCn1cnc2ccccc21 [Compound 3747, 2-Benzoimidazol-1-yl-ethanesulfonyl fluoride]
- EC50 ([1]; in vivo, read-out: EC50): 1400 µM

Compound: O=S(=O)(F)CCNc1ccccc1 [Compound 3754, 2-phenylaminoethanesulfonyl fluoride]
- EC50 ([1]; in vivo, read-out: EC50): 940 µM and 570 µM

Compound: CCN(C)c1ccc(/N=N/c2ccccc2)cc1 [Compound 3761, 4-N-ethyl-N-methylaminoazobenzene]
- EC50 ([5]; agar (plate) assay, 20° C.): 0.8 mg/L (≈ 3.34 µM)
- Gall 40 (gall rating) [6, 15]: 0.67
- Gall 200 (gall rating) [6, 15]: 0.00
- Ptox 40 (phytotoxicity rating) [7, 16]: 0.00
- Ptox 200 (phytotoxicity rating) [7, 16]: 1.00
- EC50 ([8]; liquid (well) assay, 20° C.): 6.3 to 12.5 mg/L (≈ 26.3 to 52.2 µM)
- EC50 [1, 14]: 7 µM

Compound: CCNc1ccccc1 [Compound 3766, N-ethylaniline]
- EC50 [1, 14]: 360 µM

Compound: CN(C)c1ccc(/N=N/c2ccc(NCCS(=O)(=O)F)cc2)cc1 [Compound 3767, 2-[4-(4-dimethylamino-phenylazo)-phenylamino]-ethanesulfonyl fluoride]
- EC50 ([1]; Caenorhabditis elegans, 96 h): 7 µM

Compound: CN(C)c1ccc(/N=N/c2ccccc2)cc1 [DC3783, Dimethyl-(4-phenylazo-phenyl)-amine]
- EC50 [5]: 1.6 mg/L (≈ 7.1 µM)
- EC50 [8]: 0.4 to 0.78 mg/L (≈ 1.78 to 3.46 µM)

Compound: CNc1ccc(N=Nc2ccccc2)cc1 [DC3845, Methyl-(4-phenylazo-phenyl)-amine]
- EC50 [5]: 0.4 mg/L (≈ 1.89 µM)
- Gall 40 (gall rating) [6]: 0.33
- Gall 200 (gall rating) [6]: 0.00
- Ptox 40 (phytotoxicity rating) [7]: 1.00
- Ptox 200 (phytotoxicity rating) [7]: 3.00
- EC50 [8]: 0.4 to 0.8 mg/L (≈ 1.89 to 3.79 µM)

Compound: CN(C)CCO [DME, dimethylethanolamine]
- rescue of PEAMT1 mutants [9]: rescued
- F1 phenotype PEAMT1 dsRNA ([9]; in vivo): Fertile adults
- rescue of the sterility associated with PEAMT1 RNAi ([9]; in vivo): rescues the sterility
- F1 phenotype PEAMT2 dsRNA [10]: Sterility; also recorded: L1/L2 arrest/lethality

Compound: NCCO [EA, ethanolamine]
- F1 phenotype PEAMT1 dsRNA ([9]; in vivo): L1/L2 arrest/lethality
- F1 phenotype PEAMT2 dsRNA [10]: L1/L2 arrest/lethality

Compound: CNCCO [MME, monomethylethanolamine]
- rescue of PEAMT1 mutants [9]: rescued
- F1 phenotype PEAMT1 dsRNA ([9]; in vivo): Fertile adults
- F1 phenotype PEAMT2 dsRNA [10]: L1/L2 arrest/lethality

Compound: CCCCCCCCCCCCCCCCOP(=O)([O-])OCC[N+](C)(C)C [miltefosine]
- parasite proliferation within human erythrocytes [11]: inhibits parasite proliferation
- inhibition of the plasmodium PEAMT enzyme [12]: inhibited

Second part, led by results:

- EC50 ([5]; agar (plate) assay, 20° C.): > 100 mg/L
- EC50 ([8]; liquid (well) assay, 20° C.): 6.3 to 12.5 mg/L (≈ 26.3 to 52.2 µM)
Compound: Cc1ccc(/N=N/c2ccc(N(C)C)cc2)cc1 [DC3785, Dimethyl-(4-p-tolylazo-phenyl)-amine]

- EC50 ([5]; agar (plate) assay, 20° C.): 1.6 mg/L (≈ 6.69 µM)
- EC50 ([8]; liquid (well) assay, 20° C.): 0.4 to 0.78 mg/L (≈ 1.67 to 3.26 µM)
Compound: Cc1cc(N(C)C)ccc1/N=N/c1ccccc1 [DC3787, Dimethyl-(3-methyl-4-phenylazo-phenyl)-amine]

- EC50 ([5]; agar (plate) assay, 20° C.): 12.5 to 25 mg/L (≈ 55.2 to 110 µM)
- EC50 ([8]; liquid (well) assay, 20° C.): 25 to 50 mg/L (≈ 110 to 221 µM)
Compound: CN(C)c1ccc(/N=N/c2ccccn2)cc1 [DC3791, Dimethyl-[4-(pyridin-2-ylazo)-phenyl]-amine]

- EC50 ([5]; agar (plate) assay, 20° C.): > 100 mg/L
- EC50 ([8]; liquid (well) assay, 20° C.): 3.2 to 6.3 mg/L (≈ 11.5 to 22.7 µM)
Compound: O=C1C=CC(=O)N1c1ccc(/N=N/c2ccccc2)cc1 [DC3792, 1-(4-Phenylazo-phenyl)-pyrrole-2,5-dione]

- EC50 ([5]; agar (plate) assay, 20° C.): 6.3 mg/L (≈ 23 µM)
- EC50 ([8]; liquid (well) assay, 20° C.): 3.2 to 6.3 mg/L (≈ 11.7 to 23 µM)
Compound: CC(=O)Nc1ccc(/N=N/c2ccccc2)cc1Cl [DC3796, N-(2-Chloro-4-phenylazo-phenyl)-acetamide]

- EC50 ([5]; agar (plate) assay, 20° C.): 0.4 mg/L (≈ 1.31 µM)
- EC50 ([8]; liquid (well) assay, 20° C.): 0.2 to 0.4 mg/L (≈ 0.657 to 1.31 µM)
Compound: CCNc1ccc(/N=N/c2ccc(Br)cc2)cc1 [DC3800, [4-(4-Bromo-phenylazo)-phenyl]-ethyl-amine]
- Gall 40 (gall rating) [6, 15]: 1.33
- Gall 200 (gall rating) [6, 15]: 0.00
- Ptox 40 (phytotoxicity rating) [7, 16]: 0.00
- Ptox 200 (phytotoxicity rating) [7, 16]: 2.67

- EC50 ([5]; agar (plate) assay, 20° C.): 0.4 mg/L (≈ 1.67 µM)
- EC50 ([8]; liquid (well) assay, 20° C.): 0.2 to 0.4 mg/L (≈ 0.836 to 1.67 µM)
Compound: CCNc1ccc(/N=N/c2ccc(C)cc2)cc1 [DC3801, Ethyl-(4-p-tolylazo-phenyl)-amine]
- Gall 40 (gall rating) [6, 15]: 1.33
- Gall 200 (gall rating) [6, 15]: 0.00
- Ptox 40 (phytotoxicity rating) [7, 16]: 1.67
- Ptox 200 (phytotoxicity rating) [7, 16]: 3.00

- EC50 ([5]; agar (plate) assay, 20° C.): 0.8 mg/L (≈ 2.42 µM)
- EC50 ([8]; liquid (well) assay, 20° C.): 0.4 to 0.8 mg/L (≈ 1.21 to 2.42 µM)
Compound: CN1CCCc2cc(/N=N/c3ccc(Br)cc3)ccc21 [DC3819, (4-Bromo-phenyl)-(1-methyl-1,2,3,4-tetrahydro-quinolin-6-yl)-diazene]

- EC50 ([5]; agar (plate) assay, 20° C.): 1.6 mg/L (≈ 5.69 µM)
- EC50 ([8]; liquid (well) assay, 20° C.): 0.8 to 1.6 mg/L (≈ 2.84 to 5.69 µM)
Compound: COc1ccc(/N=N/c2ccc3c(c2)CCCN3C)cc1 [DC3821, (4-Methoxy-phenyl)-(1-methyl-1,2,3,4-tetrahydro-quinolin-6-yl)-diazene]

- EC50 ([5]; agar (plate) assay, 20° C.): 3.2 mg/L (≈ 13.2 µM)
- EC50 ([8]; liquid (well) assay, 20° C.): 6.2 to 12.5 mg/L (≈ 25.6 to 51.6 µM)
Compound: CN(C)c1ccc(/N=N/c2ccccn2)c(O)c1 [DC3829, 5-Dimethylamino-2-(pyridin-2-ylazo)-phenol]

- EC50 ([5]; agar (plate) assay, 20° C.): 1.6 mg/L (≈ 6.69 µM)
- EC50 ([8]; liquid (well) assay, 20° C.): 1.5 to 3.1 mg/L (≈ 6.27 to 13 µM)
Compound: Cc1ccccc1/N=N/c1ccc(N(C)C)cc1 [DC3832, Dimethyl-(4-o-tolylazo-phenyl)-amine]

- EC50 ([5]; agar (plate) assay, 20° C.): 6.2 mg/L (≈ 17.3 µM)
- EC50 ([8]; liquid (well) assay, 20° C.): 12.5 to 25 mg/L (≈ 34.9 to 69.8 µM)
Compound: O=C1CSC(=S)N1c1ccc(/N=N/c2ccc([N+](=O)[O-])cc2)cc1 [DC3833, 3-[4-(4-Nitro-phenylazo)-phenyl]-2-thioxo-thiazolidin-4-one]

- EC50 ([5]; agar (plate) assay, 20° C.): 6.25 mg/L (≈ 25.7 µM)
- EC50 ([8]; liquid (well) assay, 20° C.): 3.1 to 6.2 mg/L (≈ 12.7 to 25.5 µM)
Compound: O=[N+]([O-])c1ccc(/N=N/c2ccc(O)cc2)cc1 [DC3844, 4-(4-Nitro-phenylazo)-phenol]

- EC50 ([5]; agar (plate) assay, 20° C.): 0.4 mg/L (≈ 1.54 µM)
- EC50 ([8]; liquid (well) assay, 20° C.): 0.4 mg/L (≈ 1.54 µM)
Compound: CN(C)c1ccc(/N=N/c2cccc(Cl)c2)cc1 [DC3853, [4-(3-Chloro-phenylazo)-phenyl]-dimethyl-amine]

- EC50 ([8]; liquid (well) assay, 20° C.): 12 mg/L (≈ 53.3 µM)
Compound: CN(C)c1ccc(C(=O)c2ccccc2)cc1 [DC3890, (4-Dimethylamino-phenyl)-phenyl-methanone]

- EC50 ([8]; liquid (well) assay, 20° C.): 1.6 mg/L (≈ 7.04 µM)
Compound: O=[N+]([O-])c1ccc(N=Nc2ccccc2)cc1 [DC3898, (4-Nitro-phenyl)-phenyl-diazene]

- EC50 ([8]; liquid (well) assay, 20° C.): 12.5 mg/L (≈ 49.7 µM)
Compound: CN(C)c1ccc(/C=C/C(=O)c2ccccc2)cc1 [DC3901, 3-(4-Dimethylamino-phenyl)-1-phenyl-propenone]
